Laboratory results: paper PMC12079242, “Design, Synthesis, Biological Evaluation, and Molecular Docking Studies of Novel 1,3,4-Thiadiazole Derivatives Targeting Both Aldose Reductase and α-Glucosidase for Diabetes Mellitus” (ACS Omega, 2025)
Values belong to the compound of their own block, whether it stands above or below them.

How the values were obtained:
[1] = test system: S. typhimurium TA 98; test: Ames II mutagenicity test, TA 98; type: cell-based, Salmonella typhimurium
Protocol: (§1) Ames II Mutagenicity Assay Kit BioReliance and Moltox (Moltox, Boone, NC) kit were used in the experiment and the experiment was performed completely according to the kit procedure.[68]S. typhimurium TA 98 (hisD3052) and TA mix (hisG1775, hisC9138, hisG9074, hisG9133, hisG9130, hisC9070) strains were incubated in 50 mL tubes containing 10 mL growth medium at 37 °C for 24 h. At the end of the time, the OD600 value of the suspension was measured. Since the OD600 value ≥ 2.0, the experimental procedure was continued. The dilutions of 10 μL of compound 6h at 75, 37.5, 18.75, 9.4, 4.7 μM and compound 6o at […] were prepared at 5 different concentrations of the test substances dissolved in DMSO. The exposure plates (24 wells) with and without the S9 enzyme fraction were prepared for both strains. The exposure medium, bacteria, and test substance were added to the plates without S9 enzyme fraction in the amounts specified in the procedure; S9 enzyme fraction was added to the plates containing S9 enzyme fraction and incubated at 37 °C, 250 rpm for 90 min with shaking. At the end of the incubation period, […] of purple colored indicator medium specific for bacterial strains was added to each well of the plate. 4-Nitroquinoline-N-Oxide (4-NQO) - 2-Nitrofluorene (2-NF), and 2-Aminoanthracene (2-AA) were used as positive control and only DMSO was used as negative control. The contents of 50 μL in each well were transferred to 384 plates according to the determined experimental design and incubated at 37 °C for 48 h. At the end of the incubation period, bacterial metabolism in the plates changes the pH and changes the purple color to yellow. The number of yellow wells formed at the end of the experiment was determined as positive wells and the genotoxic properties of the substances were interpreted. Means and SD values of positive wells were calculated.[69]

[2] = test system: S. typhimurium TA mix; test: Ames II mutagenicity test, TA mix; type: cell-based, Salmonella typhimurium; conditions: for Average number of the positive wells: TA Mix; for mutagenicity: TA mix strain
Protocol: as §1

[3] = molecular target: α-Glucosidase from Saccharomyces cerevisiae; test: α-Glycosidase inhibition assay with pNPG substrate; type: biochemical; conditions: for Ki: Lineweaver–Burk plots, read-out: α-GLY KI; for IC50: mean ± SEM, read-out: α-GLY IC50
Protocol: α-Glucosidase activity (α-Glucosidase from Saccharomyces cerevisiae) was assessed using p-nitrophenyl-D-glycopyranoside (pNPG) as the substrate, following the procedure outlined by Tao et al.[60],[61] Initially, 100 μL of phosphate buffer was mixed with 20 μL of the enzyme solution (0.15 U/mL, pH 6.8) and 10–100 μL (0.01–1 mg/mL^–1) of the sample. To ensure complete enzyme inhibition, multiple solutions were prepared in phosphate buffer. The mixture was preincubated at 35 °C for 12 min before the reaction was initiated by adding pNPG. Subsequently, 50 μL of pNPG solution (5.0 mM, pH 7.4) was added and incubated at 37 °C. Absorbance was measured spectrophotometrically at 405 nm.
Furthermore, the types of inhibition and inhibition constants (KI) were calculated from Lineweaver–Burk plots, providing detailed insights into the kinetic properties of these inhibitors.[62],[63]

SMILES: Nc1ccc2cc3ccccc3cc2c1 [2-AA, 2-Aminoanthracene, reference compound]
- Average number of the positive wells ([1]; TA 98, S9+, positive control): 16
- Average number of the positive wells ([1]; TA 98, S9–, positive control): 16
- Average number of the positive wells ([2]; S9+, positive control): 16
- Average number of the positive wells ([2]; S9–, positive control): 16

SMILES: O=C(CSc1nnc(NC2CCCCC2)s1)N(Cc1ccc([N+](=O)[O-])cc1)c1ccc(Cl)cc1 [6f, N-(4-Chlororophenyl)-2-[(5-(cyclohexylamino)-1,3,4-thiadiazol-2-yl)thio]-N-(4-nitrobenzyl) Acetamide]
- Ki [3]: 342 ± 22.4 µM
- IC50 [3]: 347 ± 18.3 µM

SMILES: Cc1ccc(Nc2nnc(SCC(=O)N(Cc3ccc([N+](=O)[O-])cc3)c3ccc(Cl)cc3)s2)cc1 [6h, N-(4-Chlororophenyl)-2-[(5-(4-methylphenylamino)-1,3,4-thiadiazol-2-yl)thio]-N-(4-nitrobenzyl) Acetamide]
- Average number of the positive wells ([1]; TA 98, S9+, 4.7 μM): 0
- Average number of the positive wells ([1]; TA 98, S9+, 9.4 μM): 0
- Average number of the positive wells ([1]; TA 98, S9+, 18.75 μM): 0
- Average number of the positive wells ([1]; TA 98, S9+, 37.5 μM): 0
- Average number of the positive wells ([1]; TA 98, S9+, 75 μM): 0
- Average number of the positive wells ([1]; TA 98, S9–, 4.7 μM): 0
- Average number of the positive wells ([1]; TA 98, S9–, 9.4 μM): 0
- Average number of the positive wells ([1]; TA 98, S9–, 18.75 μM): 0
- Average number of the positive wells ([1]; TA 98, S9–, 37.5 μM): 0
- Average number of the positive wells ([1]; TA 98, S9–, 75 μM): 0
- Ki [3]: 4.48 ± 0.25 µM
- IC50 [3]: 4.68 ± 0.23 µM
- Average number of the positive wells ([2]; S9+, 4.7 μM): 0
- Average number of the positive wells ([2]; S9+, 9.4 μM): 0
- Average number of the positive wells ([2]; S9+, 18.75 μM): 0
- Average number of the positive wells ([2]; S9+, 37.5 μM): 0
- Average number of the positive wells ([2]; S9+, 75 μM): 8
- Average number of the positive wells ([2]; S9–, 4.7 μM): 0
- Average number of the positive wells ([2]; S9–, 9.4 μM): 0
- Average number of the positive wells ([2]; S9–, 18.75 μM): 0
- Average number of the positive wells ([2]; S9–, 37.5 μM): 0
- Average number of the positive wells ([2]; S9–, 75 μM): 5
- mutagenicity ([2]; presence and absence of S9, 75 μM): mutagenicity was detected

SMILES: CCCNc1nnc(SCC(=O)N(Cc2ccc([N+](=O)[O-])cc2)c2ccc(F)cc2)s1 [6k, N-(4-Fluorophenyl)-2-[(5-(propylamino)-1,3,4-thiadiazol-2-yl)thio]-N-(4-nitrobenzyl) Acetamide]
- IC50 [3]: > 500 µM

SMILES: CC(C)Nc1nnc(SCC(=O)N(Cc2ccc([N+](=O)[O-])cc2)c2ccc(F)cc2)s1 [6l, N-(4-Fluorophenyl)-2-[(5-(isopropylamino)-1,3,4-thiadiazol-2-yl)thio]-N-(4-nitrobenzyl)acetamide]
- IC50 [3]: > 500 µM

SMILES: CCCCNc1nnc(SCC(=O)N(Cc2ccc([N+](=O)[O-])cc2)c2ccc(F)cc2)s1 [6m, N-(4-Fluorophenyl)-2-[(5-(butylamino)-1,3,4-thiadiazol-2-yl)thio]-N-(4-nitrobenzyl) Acetamide]
- IC50 [3]: > 500 µM

SMILES: O=C(CSc1nnc(NC2CCCCC2)s1)N(Cc1ccc([N+](=O)[O-])cc1)c1ccc(F)cc1 [6o, N-(4-Fluorophenyl)-2-[(5-(cyclohexylamino)-1,3,4-thiadiazol-2-yl)thio]-N-(4-nitrobenzyl)acetamide]
- Average number of the positive wells ([1]; TA 98, S9+, 3.125 nM): 0
- Average number of the positive wells ([1]; TA 98, S9+, 6.25 nM): 0
- Average number of the positive wells ([1]; TA 98, S9+, 12.5 nM): 0
- Average number of the positive wells ([1]; TA 98, S9+, 25 nM): 0
- Average number of the positive wells ([1]; TA 98, S9+, 50 nM): 0
- Average number of the positive wells ([1]; TA 98, S9–, 3.125 nM): 0
- Average number of the positive wells ([1]; TA 98, S9–, 6.25 nM): 0
- Average number of the positive wells ([1]; TA 98, S9–, 12.5 nM): 0
- Average number of the positive wells ([1]; TA 98, S9–, 25 nM): 0
- Average number of the positive wells ([1]; TA 98, S9–, 50 nM): 0
- Ki [3]: 12.5 ± 1.08 µM
- IC50 [3]: 34.6 ± 1.78 µM
- Average number of the positive wells ([2]; S9+, 3.125 nM): 0
- Average number of the positive wells ([2]; S9+, 6.25 nM): 0
- Average number of the positive wells ([2]; S9+, 12.5 nM): 0
- Average number of the positive wells ([2]; S9+, 25 nM): 0
- Average number of the positive wells ([2]; S9+, 50 nM): 15.3
- Average number of the positive wells ([2]; S9–, 3.125 nM): 0
- Average number of the positive wells ([2]; S9–, 6.25 nM): 0
- Average number of the positive wells ([2]; S9–, 12.5 nM): 0
- Average number of the positive wells ([2]; S9–, 25 nM): 0
- Average number of the positive wells ([2]; S9–, 50 nM): 15.3
- mutagenicity ([2]; presence and absence of S9, 50 nM): mutagenicity was detected

The next lines start with the values.

- Ki [3]: 11.9 ± 0.62 µM
- IC50 [3]: 12.6 ± 0.75 µM
SMILES: CCNc1nnc(SCC(=O)N(Cc2ccc([N+](=O)[O-])cc2)c2ccc(Cl)cc2)s1 [6a, N-(4-Chlororophenyl)-2-[(5-(ethylamino)-1,3,4-thiadiazol-2-yl)thio]-N-(4-nitrobenzyl) Acetamide]

- Ki [3]: 96.5 ± 6.15 µM
- IC50 [3]: 99 ± 7.37 µM
SMILES: CC(C)CNc1nnc(SCC(=O)N(Cc2ccc([N+](=O)[O-])cc2)c2ccc(Cl)cc2)s1 [6e, N-(4-Chlororophenyl)-2-[(5-(isobutylamino)-1,3,4-thiadiazol-2-yl)thio]-N-(4-nitrobenzyl) Acetamide]

- Ki [3]: 15.9 ± 0.92 µM
- IC50 [3]: 16.5 ± 0.93 µM
SMILES: COCCNc1nnc(SCC(=O)N(Cc2ccc([N+](=O)[O-])cc2)c2ccc(F)cc2)s1 [6j, N-(4-Fluorophenyl)-2-[(5-((2-methoxyethyl)amino)-1,3,4-thiadiazol-2-yl)thio]-N-(4-nitrobenzyl) Acetamide]

- Ki [3]: 8.38 ± 0.12 µM
- IC50 [3]: 8.25 ± 0.56 µM
SMILES: O=C(CSc1nnc(Nc2ccccc2)s1)N(Cc1ccc([N+](=O)[O-])cc1)c1ccc(F)cc1 [6p, N-(4-Fluorophenyl)-2-[(5-(phenylamino)-1,3,4-thiadiazol-2-yl)thio]-N-(4-nitrobenzyl)acetamide]

- Ki [3]: 7.86 ± 0.62 µM
- IC50 [3]: 8.15 ± 0.48 µM
SMILES: Cc1ccc(Nc2nnc(SCC(=O)N(Cc3ccc([N+](=O)[O-])cc3)c3ccc(F)cc3)s2)cc1 [6q, N-(4-Fluorophenyl)-2-[(5-(4-methylphenylamino)-1,3,4-thiadiazol-2-yl)thio]-N-(4-nitrobenzyl) Acetamide]
